# Experimental data reported in patent US20260027096A1, “PHD INHIBITORS” (Oxford University Innovation Limited, priority 2023, published 2026).
# Target: PHD2 (Homo sapiens (Human), UniProt Q9GZT9)
# Assay: PHD2 RF-MS (RapidFire LC-MS) hydroxylation assay
# Type: biochemical
# Description: In brief, cDNA encoding for the catalytic domain of tPHD2 (181-426 residues) was cloned into the pET28a (+)/pET24a (+) vectors (Novagen), to enable production of tPHD2 (residues 181-426) protein with/without an N-terminal His6-tag. The tPHD2 (residues 181-426) encoding construct was transformed into the Escherichia coli BL21 DE3 cell line; protein production was induced with 0.5 mM […] (3-5 hr at 28° C.). […] The protein was exchanged into 50 mM Tris-HCl buffer (pH 7.5) and concentrated to % 40 mg/ml.
# Tris(hydroxymethyl)aminomethane was from Fisher. Ferrous ammonium sulfate (FAS), 2-oxoglutarate (2OG) and L-ascorbic acid were from Sigma Aldrich; solutions of these were prepared freshly each day. All inhibition assays were carried out in 384-well polypropylene plates (Greiner Bio-One). PHD2 assays were performed in assay buffer (50 mM Tris. Cl pH 7.5, 50 mM NaCl). […] The final assay concentration of DMSO was kept constant at 0.5%. PHD2 protein was prepared at a concentration of 300 nM in assay buffer and 25 μl dispensed across each 384-well assay plate. The PHD2 solution was allowed to equilibrate with the inhibitors for 15 minutes at room temperature; the enzyme reaction then initiated by dispense of 25 μl of substrate (20 μM FAS, 200 µM L-ascorbic acid, 10 μM CODD peptide and 20 μM 2OG in the assay buffer. Enzyme reactions were allowed to proceed for 20 minutes at room temperature and the reaction terminated by addition of 10% formic acid (5 μl). Assay plates were then transferred to a RapidFire RF360 sampling robot (Agilent) connected to an Agilent 6530 accurate mass quadrupole-time-of-flight (Q-TOF) mass spectrometer. Assay samples were aspirated under vacuum and loaded onto a C4 solid phase extraction (SPE) cartridge. After loading the C4 SPE was washed with 0.1% formic acid in water to remove non-volatile buffer salts and then peptide was eluted from the SPE with 85% acetonitrile, 15% water containing 0.1% formic acid onto the mass spectrometer. Peptide charge states were monitored in positive mode. Ion chromatogram data were extracted for the +2 charge state and peak area data integrated using RapidFire Integrator software (Agilent). % conversion of the CODD peptide substrate to the +16 hydroxylated peptide was calculated using the equation: % conversion=100×hydroxylated/(hydroxylated+non-hydroxylated peptide). IC50 values were determined from non-linear regression plots using GraphPad prism.
# Example 158—Structure activity relationship (SAR) studies for PHD inhibition SAR studies for PHD inhibition were carried out on the compounds of the invention. Compounds were screened against PHD2 using the RF-MS hydroxylation assay.
# Sequence of PHD2 (Q9GZT9 181-426): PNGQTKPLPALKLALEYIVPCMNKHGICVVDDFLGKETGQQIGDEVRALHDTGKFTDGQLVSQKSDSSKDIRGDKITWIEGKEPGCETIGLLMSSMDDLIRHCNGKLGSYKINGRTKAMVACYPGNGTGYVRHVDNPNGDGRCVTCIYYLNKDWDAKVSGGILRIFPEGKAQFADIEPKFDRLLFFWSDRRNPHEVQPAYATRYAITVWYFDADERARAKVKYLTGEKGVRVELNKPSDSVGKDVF
row,IC50 [nM],SMILES
1,1000 to 10000,"O=C(NCc1ccc(-c2ccccc2)cc1)c1cnn(-c2cc(O)c(C(=O)O)cn2)c1 [Compound 96, 6-(4-(([1,1′-Biphenyl]-4-ylmethyl)carbamoyl)-1H-pyrazol-1-yl)-4-hydroxynicotinic acid]"
2,1 to 1000,"N#Cc1cnc(-n2cc(C(=O)NCc3ccc(-c4ccccc4)cc3)cn2)cc1O [Compound 95, N-([1,1′-Biphenyl]-4-ylmethyl)-1-(5-cyano-4-hydroxypyridin-2-yl)-1H-pyrazole-4-carboxamide]"
3,> 10000,"COc1cc(-n2cc(C(=O)NCc3ccc(-c4ccccc4)cc3)cn2)ncc1C#N [Compound 93, N-([1,1′-Biphenyl]-4-ylmethyl)-1-(5-cyano-4-methoxypyridin-2-yl)-1H-pyrazole-4-carboxamide]"
4,1 to 1000,"N#Cc1cnn(-c2ncc(C(=O)NCc3ccc(-c4ccccc4)cc3)cc2O)c1 [Compound 125, N-([1,1′-biphenyl]-4-ylmethyl)-6-(4-cyano-1H-pyrazol-1-yl)-5-hydroxynicotinamide]"
5,1 to 1000,"COc1cc(C(=O)NCc2ccc(-c3ccccc3)cc2)cnc1-n1cc(C#N)cn1 [Compound 124, N-([1,1′-biphenyl]-4-ylmethyl)-6-(4-cyano-1H-pyrazol-1-yl)-5-methoxynicotinamide]"
6,> 10000,"O=C(O)c1ccnc(-n2cc(C(=O)NCc3ccc(-c4ccccc4)cc3)cn2)c1 [Compound 103, 2-(4-(([1,1′-Biphenyl]-4-ylmethyl)carbamoyl)-1H-pyrazol-1-yl) isonicotinic acid]"
7,> 10000,"N#Cc1ccc(-n2cc(C(=O)NCc3ccc(-c4ccccc4)cc3)cn2)nc1 [Compound 97, N-([1,1′-Biphenyl]-4-ylmethyl)-1-(5-cyanopyridin-2-yl)-1H-pyrazole-4-carboxamide]"
8,1000 to 10000,"O=C(NCc1ccc(-c2ccccc2)cc1)c1cnn(-c2cc(O)ccn2)c1 [Compound 99, N-([1,1′-Biphenyl]-4-ylmethyl)-1-(4-hydroxypyridin-2-yl)-1H-pyrazole-4-carboxamide]"
9,1000 to 10000,"O=C(O)c1ccc(-n2cc(C(=O)NCc3ccc(-c4ccccc4)cc3)cn2)nc1 [Compound 101, 6-(4-(([1,1′-Biphenyl]-4-ylmethyl)carbamoyl)-1H-pyrazol-1-yl) nicotinic acid]"
10,> 10000,"O=C(NCc1ccc(-c2ccccc2)cc1)c1ccc(-n2cccn2)nc1 [Compound 22, N-([1,1′-Biphenyl]-4-ylmethyl)-6-(1H-pyrazol-1-yl) nicotinamide]"
11,1 to 1000,"O=C(O)c1cnn(-c2ncc(C(=O)NCc3ccc(-c4ccccc4)cc3)cc2O)c1 [Compound 86, 1-(5-(([1,1′-Biphenyl]-4-ylmethyl)carbamoyl)-3-hydroxypyridin-2-yl)-1H-pyrazole-4-carboxylic acid]"
12,1000 to 10000,"O=C(NCc1ccc(-c2ccccc2)cc1)c1cnc(-n2cccn2)c(O)c1 [Compound 75, N-([1,1′-Biphenyl]-4-ylmethyl)-5-hydroxy-6-(1H-pyrazol-1-yl) nicotinamide]"
13,1 to 1000,"N#Cc1cnn(-c2cc(O)c(C(=O)NCc3ccc(-c4ccccc4)cc3)cn2)c1 [Compound 85, N-([1,1′-Biphenyl]-4-ylmethyl)-6-(4-cyano-1H-pyrazol-1-yl)-4-hydroxynicotinamide]"
14,1000 to 10000,"O=C(NCc1cccc(-c2ccccc2)c1)c1cnc(-n2cccn2)c(O)c1 [Compound 76, N-([1,1′-Biphenyl]-3-ylmethyl)-5-hydroxy-6-(1H-pyrazol-1-yl) nicotinamide]"
15,1 to 1000,"O=C(NCc1ccc(-c2ccccc2)cc1)c1cnc(-n2cccn2)cc1O [Compound 41, N-([1,1′-Biphenyl]-4-ylmethyl)-4-hydroxy-6-(1H-pyrazol-1-yl) nicotinamide]"
16,1 to 1000,"O=C(O)c1cnn(-c2ccc(C(=O)NCc3ccc(-c4ccccc4)cc3)cn2)c1 [Compound 31, 1-(5-(([1,1′-Biphenyl]-4-ylmethyl)carbamoyl)pyridine-2-yl)-1H-pyrazole-4-carboxylic acid]"
17,1 to 1000,"N#Cc1cnc(-n2cc(C(=O)NCc3ccc(-c4ccccc4)cc3)cn2)nc1O [Compound 158, N-([1,1′-biphenyl]-4-ylmethyl)-1-(5-cyano-4-hydroxypyrimidin-2-yl)-1H-pyrazole-4-carboxamide]"

# Continued, compound first:
row,SMILES,IC50 [nM]
1,"O=C(O)c1cnn(-c2cc(O)c(C(=O)NCc3ccc(-c4ccccc4)nc3)cn2)c1 [Compound 91, 1-(4-Hydroxy-5-(((6-phenylpyridin-3-yl)methyl)carbamoyl)pyridin-2-yl)-1H-pyrazole-4-carboxylic acid]",1 to 1000
2,"COc1ccc([C@H](C)NC(=O)c2cnc3c(c(C)nc4cc(C)nn43)c2O)cc1 [Compound 180, (S)-6-hydroxy-N-(1-(4-methoxyphenyl)ethyl)-2,5-dimethylpyrazolo[1,5-a]pyrido[3,2-e]pyrimidine-7-carboxamide]",1 to 1000
3,"O=C(NCc1ccc(-c2ccccc2)nc1)c1cnc(-n2cccn2)cc1O [Compound 69, 4-Hydroxy-N-((6-phenylpyridin-3-yl)methyl)-6-(1H-pyrazol-1-yl) nicotinamide]",1 to 1000
4,"O=C(O)c1cnn(-c2ccc(C(=O)NCc3ccccc3)cn2)c1 [Compound 32, 1-(5-(Benzylcarbamoyl)pyridin-2-yl)-1H-pyrazole-4-carboxylic acid]",1000 to 10000
5,"O=C(NCc1cccc(-c2ccccc2)c1)c1cnn(-c2cc(O)ccn2)c1 [Compound 109, N-([1,1′-Biphenyl]-3-ylmethyl)-1-(4-hydroxypyridin-2-yl)-1H-pyrazole-4-carboxamide]",1000 to 10000
6,"O=C(NCc1ccc(-c2ccccc2)cc1)c1ccc(-n2cccn2)cc1O [Compound 16, N-([1,1′-biphenyl]-4-ylmethyl)-2-hydroxy-4-(1H-pyrazol-1-yl)benzamide]",> 10000
7,"O=C(NCC1CCCCC1)c1cnc(-n2cccn2)cc1O [Compound 44, N-(Cyclohexylmethyl)-4-hydroxy-6-(1H-pyrazol-1-yl) nicotinamide]",> 10000
8,"O=C(NCc1cccc(-c2ccccc2)c1)c1cnc(-n2cccn2)cc1O [Compound 65, N-([1,1′-Biphenyl]-3-ylmethyl)-4-hydroxy-6-(1H-pyrazol-1-yl) nicotinamide]",1 to 1000
9,"O=C(Nc1ccc(-c2ccccc2)cc1)c1cnn(-c2cc(O)ccn2)c1 [Compound 108, N-([1,1′-Biphenyl]-4-yl)-1-(4-hydroxypyridin-2-yl)-1H-pyrazole-4-carboxamide]",> 10000
10,"O=C(Nc1cccc(-c2ccccc2)c1)c1cnc(-n2cccn2)cc1O [Compound 66, N-([1,1′-Biphenyl]-3-yl)-4-hydroxy-6-(1H-pyrazol-1-yl) nicotinamide]",1 to 1000
11,"O=C(NCc1cccc(C(F)(F)F)c1)c1cnc(-n2cccn2)cc1O [Compound 43, 4-Hydroxy-6-(1H-pyrazol-1-yl)-N-(3-(trifluoromethyl)benzyl) nicotinamide]",1000 to 10000
12,"O=C(NCc1ccc(OC(F)(F)F)cc1)c1cnc(-n2cccn2)cc1O [Compound 67, 4-Hydroxy-6-(1H-pyrazol-1-yl)-N-(4-(trifluoromethyloxy)benzyl) nicotinamide]",1 to 1000
13,"O=C(NCc1ccc(C(F)(F)F)cc1)c1cnc(-n2cccn2)cc1O [Compound 64, 4-Hydroxy-6-(1H-pyrazol-1-yl)-N-(4-(trifluoromethyl)benzyl) nicotinamide]",1 to 1000
14,"O=C(O)c1cnn(-c2ncc(C(=O)NCC3CCC(C(F)(F)F)CC3)cc2O)c1 (centres unmarked) [Compound 129, 1-(3-hydroxy-5-(((4-(trifluoromethyl)cyclohexyl)methyl)carbamoyl)pyridin-2-yl)-1H-pyrazole-4-carboxylic acid]",1 to 1000
15,"O=C(Nc1ccc(-c2ccccc2)cc1)c1cnc(-n2cccn2)cc1O [Compound 42, N-([1,1′-Biphenyl]-4-yl)-4-hydroxy-6-(1H-pyrazol-1-yl) nicotinamide]",1 to 1000
16,"N#Cc1cnn(-c2cc(O)c(C(=O)NCc3ccc(C(F)(F)F)cc3)cn2)c1 [Compound 89, 6-(4-Cyano-1H-pyrazol-1-yl)-4-hydroxy-N-(4-(trifluoromethyl)benzyl) nicotinamide]",1 to 1000
17,"N#Cc1cnc(-n2cc(C(=O)NCc3ccc(-c4ccc(C(=O)O)cc4)nc3)cn2)nc1O [Compound 162, 4-(5-((1-(5-cyano-4-hydroxypyrimidin-2-yl)-1H-pyrazole-4-carboxamido)methyl)pyridin-2-yl)benzoic acid]",1000 to 10000
18,"O=C(O)c1cnn(-c2cc(O)c(C(=O)NCc3ccc(C(F)(F)F)cc3)cn2)c1 [Compound 90, 1-(4-Hydroxy-5-((4-(trifluoromethyl)benzyl)carbamoyl)pyridin-2-yl)-1H-pyrazole-4-carboxylic acid]",1 to 1000
